Legend:
[1] = system: Hairpin DNA (5'-biotin, SPR) (DNA, hairpin) TTGGCCAATGTTTGGCCAA; test: SPR
[2] = system: c-myc (pu27) (DNA, G4) TGGGGAGGGTGGGGAGGGTGGGGAAGG; test: FRET melting; details: K+ (100 mM; K+ and Na+ swapped elsewhere in the source); various concentrations
[3] = system: Hairpin DNA (DNA, hairpin) TTGGCCAATGTTTGGCCAA; test: UV melting, 260 nm; details: 100 mM KCl; DNA:drug 1:10, 3 μM DNA; 20 mM cacodylic acid buffer, pH 7.3
[4] = system: HTG22 (FRET, FAM/TAMRA) (DNA, G4) AGGGTTAGGGTTAGGGTTAGGG; test: FRET melting; details: 20 μM compound, DNA:drug 1:10
[5] = system: HTG22 (DNA, G4) AGGGTTAGGGTTAGGGTTAGGG; test: UV-vis absorption titration; details: K+ (100 mM; K+ and Na+ swapped elsewhere in the source), 15 μM compound, 0-60 μM DNA, Tris-HCl
[6] = system: HTG22 (5'-biotin, SPR) (DNA, G4) AGGGTTAGGGTTAGGGTTAGGG; test: SPR kinetics, bivalent ligand model; details: K+ (100 mM; K+ and Na+ swapped elsewhere in the source), stronger of two sites
[7] = system: HTG22 (DNA, G4) AGGGTTAGGGTTAGGGTTAGGG; test: CD titration, 285 nm; details: K+ (100 mM; K+ and Na+ swapped elsewhere in the source); 5 μM DNA, Tris-HCl
[8] = system: c-kit 1 (DNA, G4) GGGAGGGCGCTGGGAGGAGGG; test: FRET melting; details: various concentrations
[9] = K+ (100 mM; K+ and Na+ swapped elsewhere in the source)
[10] = Na+ (100 mM; K+ and Na+ swapped elsewhere in the source)

| Ka [1] | binding [2] | Delta Tm [3] | Delta Tm [4, 9] | Delta Tm [4, 10] | binding ([5]; 16.89% hypochromicity, 1 nm red shift) | Ka2 ([6]; Ka1 2.82 × 10^5) | binding [7] | binding [8, 9] | binding [8, 10] | binding ([5]; 16.41% hypochromicity, 3 nm red shift) | Ka2 ([6]; Ka1 1.65 × 10^5) | Structure (SMILES) |
| --- | --- | --- | --- | --- | --- | --- | --- | --- | --- | --- | --- | --- |
| 40000 M⁻¹ | no | 0.10 °C | 8.04 °C | 1.00 °C | yes | 384000 M⁻¹ | yes | yes | no |  |  | C[N+]1(C)CCN(Cc2nc3ccc4c(c3[nH]2)C(=O)c2ccccc2C4=O)CC1 |
| 60000 M⁻¹ | no | 0.03 °C | 5.85 °C | 0.55 °C |  |  | yes | yes | no | yes | 169000 M⁻¹ | CN1CCN(Cc2nc3ccc4c(c3[nH]2)C(=O)c2ccccc2C4=O)CC1 |

From paper PMC4980623 (2016)
